Source: article PMC2783875 (Biochemistry, 2009)

Target: T1, EntE (Escherichia coli, UniProt P10378)
T1 sequence (P10378 1-536): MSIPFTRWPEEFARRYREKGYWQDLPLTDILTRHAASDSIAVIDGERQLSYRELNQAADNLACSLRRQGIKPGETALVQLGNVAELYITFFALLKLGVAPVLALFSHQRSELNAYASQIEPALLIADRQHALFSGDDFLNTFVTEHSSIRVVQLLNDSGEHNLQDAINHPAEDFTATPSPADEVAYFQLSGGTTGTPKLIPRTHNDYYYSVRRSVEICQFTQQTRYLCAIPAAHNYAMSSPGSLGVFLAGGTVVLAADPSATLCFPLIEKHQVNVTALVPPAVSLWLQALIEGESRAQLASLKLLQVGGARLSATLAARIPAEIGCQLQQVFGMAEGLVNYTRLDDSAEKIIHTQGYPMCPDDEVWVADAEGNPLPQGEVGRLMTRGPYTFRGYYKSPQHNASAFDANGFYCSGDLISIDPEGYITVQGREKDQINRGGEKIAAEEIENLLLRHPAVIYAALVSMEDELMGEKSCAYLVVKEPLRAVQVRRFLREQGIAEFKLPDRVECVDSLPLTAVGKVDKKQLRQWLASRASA
Experiment: enzyme inhibition kinetics versus ATP
Format: biochemical

In the case of `Nc1ncnc2c1ncn2[C@@H]1O[C@H](COP(=O)(O)OP(=O)(O)OP(=O)(O)OP(=O)(O)OC[C@H]2O[C@@H](n3cnc4c(N)ncnc43)[C@H](O)[C@@H]2O)[C@@H](O)[C@H]1O` [Ap4A, P^1, P^3-diadenosine-5′-tetraphosphate], the Ki is reported as 1.2 ± 0.1 µM.
